In patent US20060204502A1 (priority 2004, published 2006) one finds EC50 data, which are given here for one compound.

The structures appear in SMILES notation.

For the assay, the system named is A375 cells. Put plainly: Flow cytometry cell cycle (G2/M) and apoptosis (sub-G1) analysis, A375. The conditions noted are these: Homo sapiens, A-375, read-out: SEC50. It is filed as cell-based, human. Here is the method: Flow Cytometry Analysis: A375 and NCTC2544 adherent cells were trypsinized, mixed with floating cells, washed with PBS and permeabilised in 70% (vol/vol) ethanol/PBS solution at 4° C. for at least 24 hours. Jurkat, HeL023 and PBMC cells were centrifuged for 10 minutes at 1000×g. The cell pellet was then resuspended and permeabllised in 70% (vol/vol) ethanol/PBS solution at 4° C. for at least 24 hours. The cells were washed with PBS and the DNA was stained with a PBS solution, containing 20 μg/ml of propidium iodide and 100 μg/ml of RNAse, at room temperature for 30 minutes. Cells were analysed by FACScan (Becton-Dickinson) and the content of DNA was evaluated by the Cell-LISYS program (Becton-Dickinson). Cell distribution among cell cycle phases and apoptotic cells was evaluated as previously described (Secchiero et al., 2001). Briefly, the cell cycle distribution is shown as the percentage of cells containing 2n (G1 phase), 4n (G2 and M phases), 4n>x>2n. DNA amount (S phase) judged by propidium iodide staining. The apoptotic population is the percentage of cells with DNA content lower than 2n.
After 24 hours, cells were collected for flow cytometry analysis. PD 98059 was used at 20 uM as an inhibitor of MEK to prevent MEK-1 activation. […]
EC50 values were obtained by analysing G2/M accumulation dose response curve. ECMAX values were obtained by analysing sub-G1 accumulation dose response curve. Paclitaxel values have units of ng/ml.
For orientation: A flow cytometer gives signals particle by particle.

Take `CCCn1cc2c(nc(NC(=O)Nc3ccc(OC)cc3)n3nc(-c4ccco4)nc23)n1` [MRE3008F20, 5-[[(4-Methoxyphenyl)amino]carbonyl]amino-8-propyl-2-(2-furyl)-pyrazolo[4,3-e]1,2,4-triazolo[1,5-c]pyrimidine]: the EC50 was found to be 550 ± 60 nM.
